Here are results for 1 compound from article PMC6920136 (Redox Biology, 2019).

Assay [1] has as its target Duox2 (Homo sapiens, UniProt Q9NRD8). In words: H2O2 synthesis assay in homogenates of HEK293T cells expressing Duox2/DuoxA2. It counts as biochemical.
The target in assay [2] is Duox1 (Homo sapiens, UniProt Q9NRD9). Kind of assay: H2O2 synthesis assay in homogenates of HEK293T cells expressing Duox1/DuoxA1α. The assay is classed as biochemical.
Chain of Duox1 (Q9NRD9 22-1551): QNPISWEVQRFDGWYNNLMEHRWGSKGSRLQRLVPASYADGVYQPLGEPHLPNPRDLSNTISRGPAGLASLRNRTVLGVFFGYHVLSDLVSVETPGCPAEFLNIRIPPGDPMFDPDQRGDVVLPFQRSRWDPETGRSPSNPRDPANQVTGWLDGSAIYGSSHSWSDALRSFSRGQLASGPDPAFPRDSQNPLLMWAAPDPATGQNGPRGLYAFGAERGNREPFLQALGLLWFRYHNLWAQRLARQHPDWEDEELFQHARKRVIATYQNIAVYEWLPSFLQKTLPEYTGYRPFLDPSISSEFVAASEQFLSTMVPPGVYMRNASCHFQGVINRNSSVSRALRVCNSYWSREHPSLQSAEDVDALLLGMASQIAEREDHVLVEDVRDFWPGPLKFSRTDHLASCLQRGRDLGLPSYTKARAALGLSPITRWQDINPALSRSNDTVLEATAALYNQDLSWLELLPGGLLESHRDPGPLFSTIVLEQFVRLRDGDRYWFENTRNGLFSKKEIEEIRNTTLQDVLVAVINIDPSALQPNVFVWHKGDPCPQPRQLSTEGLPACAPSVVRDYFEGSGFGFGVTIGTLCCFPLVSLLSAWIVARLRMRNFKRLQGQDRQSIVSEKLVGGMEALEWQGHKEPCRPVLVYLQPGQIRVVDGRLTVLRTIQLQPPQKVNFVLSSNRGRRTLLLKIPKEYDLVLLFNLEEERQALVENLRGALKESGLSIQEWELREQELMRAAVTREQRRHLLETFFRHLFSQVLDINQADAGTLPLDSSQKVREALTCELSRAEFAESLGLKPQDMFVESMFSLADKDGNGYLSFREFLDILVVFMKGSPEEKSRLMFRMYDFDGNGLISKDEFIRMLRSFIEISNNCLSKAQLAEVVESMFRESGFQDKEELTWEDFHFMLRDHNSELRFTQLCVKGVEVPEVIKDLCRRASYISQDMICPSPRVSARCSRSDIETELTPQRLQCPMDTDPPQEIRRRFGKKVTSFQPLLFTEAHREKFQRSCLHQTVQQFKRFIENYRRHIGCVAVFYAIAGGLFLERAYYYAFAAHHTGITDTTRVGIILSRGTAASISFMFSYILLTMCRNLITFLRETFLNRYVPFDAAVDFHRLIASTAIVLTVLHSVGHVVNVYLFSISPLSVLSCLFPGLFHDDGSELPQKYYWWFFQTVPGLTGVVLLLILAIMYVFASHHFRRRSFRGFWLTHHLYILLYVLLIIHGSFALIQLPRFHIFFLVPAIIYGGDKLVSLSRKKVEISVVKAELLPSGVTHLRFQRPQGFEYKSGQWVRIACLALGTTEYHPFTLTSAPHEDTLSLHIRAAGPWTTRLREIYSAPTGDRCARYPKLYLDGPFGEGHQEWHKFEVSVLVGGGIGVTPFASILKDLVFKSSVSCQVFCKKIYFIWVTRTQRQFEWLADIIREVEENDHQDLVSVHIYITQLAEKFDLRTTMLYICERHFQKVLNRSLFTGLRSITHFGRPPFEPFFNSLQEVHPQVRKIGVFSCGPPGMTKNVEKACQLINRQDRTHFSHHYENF
Chain of Duox1 (Q1HG43 whole entry partner): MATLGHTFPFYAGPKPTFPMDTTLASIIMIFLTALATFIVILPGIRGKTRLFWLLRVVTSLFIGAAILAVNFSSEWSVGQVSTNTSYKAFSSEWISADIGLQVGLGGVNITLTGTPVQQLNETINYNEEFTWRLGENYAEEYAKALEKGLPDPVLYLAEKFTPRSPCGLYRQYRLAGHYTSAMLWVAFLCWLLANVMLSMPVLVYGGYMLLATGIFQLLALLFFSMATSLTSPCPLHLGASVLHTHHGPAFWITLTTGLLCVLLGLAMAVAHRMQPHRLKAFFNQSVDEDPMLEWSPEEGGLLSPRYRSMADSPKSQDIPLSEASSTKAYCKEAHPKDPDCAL

Chain of Duox2 (Q9NRD8 26-1548): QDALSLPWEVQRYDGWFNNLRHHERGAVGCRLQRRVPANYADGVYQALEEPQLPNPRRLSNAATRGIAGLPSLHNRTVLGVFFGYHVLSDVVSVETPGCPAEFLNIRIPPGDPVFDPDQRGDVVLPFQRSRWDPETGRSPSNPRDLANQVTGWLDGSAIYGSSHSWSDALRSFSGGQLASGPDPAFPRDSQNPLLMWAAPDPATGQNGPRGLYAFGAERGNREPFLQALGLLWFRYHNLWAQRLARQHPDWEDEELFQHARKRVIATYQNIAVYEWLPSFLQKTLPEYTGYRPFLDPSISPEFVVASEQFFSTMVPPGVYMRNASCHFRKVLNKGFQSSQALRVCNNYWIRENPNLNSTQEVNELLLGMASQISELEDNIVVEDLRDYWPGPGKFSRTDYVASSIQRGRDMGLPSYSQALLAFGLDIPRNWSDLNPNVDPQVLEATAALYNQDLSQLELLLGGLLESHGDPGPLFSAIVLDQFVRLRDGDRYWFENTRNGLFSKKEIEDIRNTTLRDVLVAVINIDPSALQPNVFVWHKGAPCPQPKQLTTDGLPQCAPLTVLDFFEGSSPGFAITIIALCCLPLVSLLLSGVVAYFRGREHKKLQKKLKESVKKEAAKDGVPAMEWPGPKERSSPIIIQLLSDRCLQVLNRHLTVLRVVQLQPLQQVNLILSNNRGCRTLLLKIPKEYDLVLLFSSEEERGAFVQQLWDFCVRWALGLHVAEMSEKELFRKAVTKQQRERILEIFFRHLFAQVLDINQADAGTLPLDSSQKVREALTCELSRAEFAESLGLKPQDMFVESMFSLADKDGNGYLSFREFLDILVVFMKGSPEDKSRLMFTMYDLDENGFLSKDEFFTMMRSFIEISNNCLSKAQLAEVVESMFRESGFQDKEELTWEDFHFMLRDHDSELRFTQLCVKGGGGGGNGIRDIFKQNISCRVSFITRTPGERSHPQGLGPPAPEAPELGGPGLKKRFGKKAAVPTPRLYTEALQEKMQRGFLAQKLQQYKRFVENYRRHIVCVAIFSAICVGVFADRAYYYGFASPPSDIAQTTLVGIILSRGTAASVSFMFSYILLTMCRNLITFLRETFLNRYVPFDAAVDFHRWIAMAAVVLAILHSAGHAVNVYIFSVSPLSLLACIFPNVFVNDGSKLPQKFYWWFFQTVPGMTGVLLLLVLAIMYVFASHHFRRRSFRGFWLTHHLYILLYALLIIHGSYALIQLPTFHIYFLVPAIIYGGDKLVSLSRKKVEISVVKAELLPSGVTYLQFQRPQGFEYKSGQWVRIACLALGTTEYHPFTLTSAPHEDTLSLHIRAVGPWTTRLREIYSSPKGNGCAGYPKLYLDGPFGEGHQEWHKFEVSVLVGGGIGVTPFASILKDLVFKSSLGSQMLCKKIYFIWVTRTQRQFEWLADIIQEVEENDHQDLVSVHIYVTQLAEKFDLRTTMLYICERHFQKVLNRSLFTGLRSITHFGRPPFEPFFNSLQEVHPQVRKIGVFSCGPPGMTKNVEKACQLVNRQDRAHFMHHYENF
Chain of Duox2 (Q1HG44 whole entry partner): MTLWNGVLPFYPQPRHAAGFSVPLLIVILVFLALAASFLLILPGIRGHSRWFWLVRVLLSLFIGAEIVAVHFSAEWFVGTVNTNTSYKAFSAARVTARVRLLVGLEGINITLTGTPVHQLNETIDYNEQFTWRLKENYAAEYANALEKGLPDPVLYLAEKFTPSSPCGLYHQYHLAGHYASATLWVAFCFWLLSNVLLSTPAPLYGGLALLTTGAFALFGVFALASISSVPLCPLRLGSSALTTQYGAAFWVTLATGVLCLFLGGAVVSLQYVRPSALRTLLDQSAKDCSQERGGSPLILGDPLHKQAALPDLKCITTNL

In general, IC50 refers to the concentration needed to halve the response being measured. For the compound `N=C(N)Nc1nc2ccc(Cl)cc2[nH]1` [ClGBI, 5-chloro-2-guanidinobenzimidazole], the IC50 in assay [1] amounted to 110 µM; in assay [2], 140 µM.
